Source: ChEMBL document CHEMBL1131247, “Substituted naphthofurans as hallucinogenic phenethylamine-ergoline hybrid molecules with unexpected muscarinic antagonist activity” (J Med Chem, 1998)
pKi: −log10 of the molar value. Several values for one entry are separate records, joined by “and”; a condition that tells them apart may be missing. Equal entries are not always repeated. Activity calls are given as the source filed them. The calls are words filed in the database; no cut-off is given here.

Assays:
[1] = target: T1, Muscarinic acetylcholine receptor M5 (Rattus norvegicus) (UniProt P08911)
T1 sequence (whole entry): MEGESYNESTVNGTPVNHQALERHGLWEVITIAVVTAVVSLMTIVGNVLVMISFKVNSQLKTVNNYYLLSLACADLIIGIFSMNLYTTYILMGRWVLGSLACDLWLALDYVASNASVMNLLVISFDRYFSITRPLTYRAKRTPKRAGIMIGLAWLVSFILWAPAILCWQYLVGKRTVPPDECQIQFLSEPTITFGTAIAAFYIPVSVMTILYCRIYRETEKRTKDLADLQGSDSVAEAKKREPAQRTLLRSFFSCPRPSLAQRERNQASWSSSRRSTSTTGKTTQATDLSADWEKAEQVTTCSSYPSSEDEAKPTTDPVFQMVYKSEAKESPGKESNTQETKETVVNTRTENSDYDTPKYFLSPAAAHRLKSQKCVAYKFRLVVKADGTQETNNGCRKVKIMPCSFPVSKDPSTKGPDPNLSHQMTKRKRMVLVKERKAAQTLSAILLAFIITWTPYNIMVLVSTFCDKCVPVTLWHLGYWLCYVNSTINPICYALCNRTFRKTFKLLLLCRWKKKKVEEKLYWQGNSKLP

[2] = target: T2, Muscarinic acetylcholine receptor M1 (Mus musculus) (UniProt P12657)
T2 sequence (whole entry): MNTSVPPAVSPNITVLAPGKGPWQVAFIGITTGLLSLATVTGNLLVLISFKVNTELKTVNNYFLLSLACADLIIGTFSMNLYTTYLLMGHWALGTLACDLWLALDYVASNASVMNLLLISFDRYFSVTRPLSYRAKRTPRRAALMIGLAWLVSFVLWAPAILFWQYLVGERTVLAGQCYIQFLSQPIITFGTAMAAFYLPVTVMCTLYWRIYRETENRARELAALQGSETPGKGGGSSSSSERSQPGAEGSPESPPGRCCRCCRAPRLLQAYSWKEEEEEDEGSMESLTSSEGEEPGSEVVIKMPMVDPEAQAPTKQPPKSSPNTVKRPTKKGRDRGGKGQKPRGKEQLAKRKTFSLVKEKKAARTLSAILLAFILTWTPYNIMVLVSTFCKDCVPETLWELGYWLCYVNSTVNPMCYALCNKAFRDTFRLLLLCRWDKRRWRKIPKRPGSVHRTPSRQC

[3] = target: Muscarinic acetylcholine receptor M3 (Rattus norvegicus) (UniProt P08483)
[4] = target: T3, Muscarinic acetylcholine receptor M2 (Rattus norvegicus) (UniProt P10980)
T3 sequence (whole entry): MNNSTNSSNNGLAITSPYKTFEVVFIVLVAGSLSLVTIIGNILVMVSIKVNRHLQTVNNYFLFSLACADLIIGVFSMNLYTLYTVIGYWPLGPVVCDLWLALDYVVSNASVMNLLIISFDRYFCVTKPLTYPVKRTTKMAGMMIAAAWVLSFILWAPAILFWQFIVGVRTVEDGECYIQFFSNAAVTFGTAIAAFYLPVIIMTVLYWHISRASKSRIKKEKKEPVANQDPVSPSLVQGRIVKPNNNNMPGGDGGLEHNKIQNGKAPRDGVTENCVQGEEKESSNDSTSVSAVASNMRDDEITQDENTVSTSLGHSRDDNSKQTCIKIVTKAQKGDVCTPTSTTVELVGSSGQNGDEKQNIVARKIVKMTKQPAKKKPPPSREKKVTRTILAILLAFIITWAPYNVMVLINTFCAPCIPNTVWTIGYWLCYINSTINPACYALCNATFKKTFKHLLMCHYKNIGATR

[5] = target: T4, Muscarinic acetylcholine receptor M4 (Rattus norvegicus) (UniProt P08485)
T4 sequence (whole entry): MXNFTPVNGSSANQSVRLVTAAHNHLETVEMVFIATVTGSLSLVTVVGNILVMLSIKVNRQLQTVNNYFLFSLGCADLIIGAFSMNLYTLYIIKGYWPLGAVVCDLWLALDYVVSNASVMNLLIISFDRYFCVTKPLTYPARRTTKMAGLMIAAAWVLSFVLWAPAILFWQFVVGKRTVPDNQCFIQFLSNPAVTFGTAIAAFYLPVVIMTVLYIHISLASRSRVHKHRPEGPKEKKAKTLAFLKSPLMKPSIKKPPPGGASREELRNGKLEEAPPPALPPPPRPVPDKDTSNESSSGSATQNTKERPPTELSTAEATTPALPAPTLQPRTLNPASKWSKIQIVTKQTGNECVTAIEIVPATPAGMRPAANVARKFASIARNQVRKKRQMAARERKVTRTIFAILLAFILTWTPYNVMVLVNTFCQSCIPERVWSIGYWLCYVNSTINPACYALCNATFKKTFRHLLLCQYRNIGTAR

[6] = target: T5, 5-hydroxytryptamine receptor 2C (Homo sapiens, UniProt P28335); test: Binding ability of compound at cloned human 5-hydroxytryptamine 2C receptor using [125 I]DOI as radioligand
T5 sequence (P28335 whole entry): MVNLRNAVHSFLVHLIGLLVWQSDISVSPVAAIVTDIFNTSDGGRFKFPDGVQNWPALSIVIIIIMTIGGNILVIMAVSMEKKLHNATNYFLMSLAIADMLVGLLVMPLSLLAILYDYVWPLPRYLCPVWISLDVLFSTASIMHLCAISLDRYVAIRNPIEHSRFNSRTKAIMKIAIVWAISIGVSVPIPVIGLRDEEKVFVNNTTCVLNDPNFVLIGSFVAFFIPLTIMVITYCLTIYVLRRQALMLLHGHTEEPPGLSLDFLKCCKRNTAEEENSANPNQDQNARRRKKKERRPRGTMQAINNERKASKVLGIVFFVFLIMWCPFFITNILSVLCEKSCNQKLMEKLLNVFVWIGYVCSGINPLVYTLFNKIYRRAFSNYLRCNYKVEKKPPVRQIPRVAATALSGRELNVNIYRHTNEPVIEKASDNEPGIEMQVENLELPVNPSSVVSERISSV

Rattus norvegicus [7] = organism: Rattus norvegicus; test: (§1) Effective dose for LSD-like behavioral effect in rats; Not significant; type: functional, organism-based
Rattus norvegicus [8] = test: Percentage of animal emitting 50 presses on the LSD appropriate lever during the test period in rat at 0.365 mg/kg (1 uM/kg); type: functional
[9] = target: T6, 5-hydroxytryptamine receptor 2A (Homo sapiens, UniProt P28223); test: Binding ability of compound at cloned human 5-hydroxytryptamine 2A receptor using [3H]ketanserin as radioligand
[10] = target: T7, 5-hydroxytryptamine receptor 2B (Homo sapiens, UniProt P41595); test: Binding ability of compound at cloned human 5-hydroxytryptamine 2B receptor using [3H]5-HT 2B as radioligand
Rattus norvegicus [11] = test: Percentage of animals emitting 50 presses on the LSD appropriate lever during the test period in rat at 1.46 mg/kg (4 umol/kg); type: functional
Rattus norvegicus [12] = test: Percentage of animals failing to emit 50 presses on either lever within the 15-min test period in rat at 0.365 mg/kg (1 uM/kg); type: functional
Rattus norvegicus [13] = test: Percentage of animals emitting 50 presses on the LSD appropriate lever during the test period in rat at 0.78 mg/kg(2 uM/kg); type: functional
Rattus norvegicus [14] = organism: Rattus norvegicus; test: as §1; type: functional, organism-based; remark: listed apart in the source
[15] = target: T7, 5-hydroxytryptamine receptor 2B; test: Binding ability of compound at cloned human 5-hydroxytryptamine 2B receptor using [3H]- rauwolscine as radioligand
Rattus norvegicus [16] = test: Percentage of animals emitting 50 presses on the LSD appropriate lever during the test period in rat at 5.84 mg/kg (16 umol/kg); type: functional
[17] = target: 5-hydroxytryptamine receptor 2A (Rattus norvegicus, UniProt P14842); test: Affinity at [3H]ketanserin-labeled 5-hydroxytryptamine 2A receptor in rat brain homogenate was determined; type: tissue-based
Rattus norvegicus [18] = test: Percentage of animals failing to emit 50 presses on either lever within the 15-min test period in rat at 1.46 mg/kg (4 umol/kg); type: functional
Rattus norvegicus [19] = test: Percentage of animals failing to emit 50 presses on either lever within the 15-min test period in rat at 5.84 mg/kg (16 umol/kg); type: functional
Rattus norvegicus [20] = test: Percentage of animals failing to emit 50 presses on either lever within the 15-min test period in rat at 2.92 mg/kg (8 umol/kg); type: functional
[21] = target: T6, 5-hydroxytryptamine receptor 2A; test: Binding ability of compound at cloned human 5-hydroxytryptamine 2A receptor using [125 I]DOI as radioligand
[22] = target: T5, 5-hydroxytryptamine receptor 2C; test: Binding ability of compound at cloned human 5-hydroxytryptamine 2C receptor using [3H]- mesulergine as radioligand
Rattus norvegicus [23] = organism: Rattus norvegicus; test: Percentage of animals emitting 50 presses on the LSD appropriate lever during the test period; type: functional
Rattus norvegicus [24] = test: Percentage of animals failing to emit 50 presses on either lever within the 15-min test period in rat at 0.78 mg/kg(2 uM/kg); type: functional
Rattus norvegicus [25] = test: Percentage of animals failing to emit 50 presses on either lever within the 15-min test period in rat at 0.08 mg/kg (0.186 uM/kg); type: functional
Rattus norvegicus [26] = test: Percentage of animals failing to emit 50 presses on either lever within the 15-min test period in rat at 0.04 mg/kg (0.093 uM/kg); type: functional
Rattus norvegicus [27] = test: Percentage of animals failing to emit 50 presses on either lever within the 15-min test period in rat at 0.01 mg/kg (0.023 uM/kg); type: functional
Rattus norvegicus [28] = test: Percentage of animals emitting 50 presses on the LSD appropriate lever during the test period i8n at 0.04 mg/kg (0.093 uM/kg); type: functional
Rattus norvegicus [29] = test: Percentage of animals failing to emit 50 presses on either lever within the 15-min test period in rat at 0.02 mg/kg(0.046 uM/kg); type: functional
Rattus norvegicus [30] = test: Percentage of animals emitting 50 presses on the LSD appropriate lever during the test period in rat at 0.02 mg/kg(0.046 uM/kg); type: functional
Rattus norvegicus [31] = test: Percentage of animals emitting 50 presses on the LSD appropriate lever during the test period in rat at 0.01 mg/kg (0.023 uM/kg); type: functional
Rattus norvegicus [32] = organism: Rattus norvegicus; test: Effective dose for LSD-like behavioral effect in rats; type: functional
Rattus norvegicus [33] = test: Percentage of animals emitting 50 presses on the LSD appropriate lever during the test period in at 0.08 mg/kg (0.186 uM/kg); type: functional

Sequence of Muscarinic acetylcholine receptor M3 (Rattus norvegicus) (P08483 whole entry, looked up): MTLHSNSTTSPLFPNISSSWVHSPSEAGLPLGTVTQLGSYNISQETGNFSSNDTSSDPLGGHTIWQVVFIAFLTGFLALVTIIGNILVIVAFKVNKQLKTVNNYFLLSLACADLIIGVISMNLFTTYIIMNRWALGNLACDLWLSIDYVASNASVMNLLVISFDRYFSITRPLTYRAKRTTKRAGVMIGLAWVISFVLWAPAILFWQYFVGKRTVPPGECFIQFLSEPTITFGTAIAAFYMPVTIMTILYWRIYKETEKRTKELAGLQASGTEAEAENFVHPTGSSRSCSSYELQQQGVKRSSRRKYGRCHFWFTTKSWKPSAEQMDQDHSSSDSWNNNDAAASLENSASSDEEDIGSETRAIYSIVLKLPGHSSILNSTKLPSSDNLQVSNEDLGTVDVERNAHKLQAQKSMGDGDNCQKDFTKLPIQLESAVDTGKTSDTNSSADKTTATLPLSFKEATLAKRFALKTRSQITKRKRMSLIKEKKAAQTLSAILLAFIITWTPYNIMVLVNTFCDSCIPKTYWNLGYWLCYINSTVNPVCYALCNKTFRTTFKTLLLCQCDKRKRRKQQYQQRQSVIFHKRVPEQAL
T6 sequence (P28223 whole entry): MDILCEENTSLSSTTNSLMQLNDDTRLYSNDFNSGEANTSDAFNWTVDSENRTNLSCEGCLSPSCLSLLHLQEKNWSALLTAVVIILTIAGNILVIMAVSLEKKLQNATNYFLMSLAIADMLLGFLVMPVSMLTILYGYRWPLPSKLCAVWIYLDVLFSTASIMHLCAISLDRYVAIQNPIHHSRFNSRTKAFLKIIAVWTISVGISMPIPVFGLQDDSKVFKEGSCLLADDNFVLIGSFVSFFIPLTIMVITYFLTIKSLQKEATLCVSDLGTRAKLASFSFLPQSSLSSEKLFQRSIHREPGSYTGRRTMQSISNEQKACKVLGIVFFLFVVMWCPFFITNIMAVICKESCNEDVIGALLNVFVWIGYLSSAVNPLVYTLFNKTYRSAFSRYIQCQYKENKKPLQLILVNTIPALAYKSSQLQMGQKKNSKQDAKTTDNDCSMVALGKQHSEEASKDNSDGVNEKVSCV
T7 sequence (P41595 whole entry): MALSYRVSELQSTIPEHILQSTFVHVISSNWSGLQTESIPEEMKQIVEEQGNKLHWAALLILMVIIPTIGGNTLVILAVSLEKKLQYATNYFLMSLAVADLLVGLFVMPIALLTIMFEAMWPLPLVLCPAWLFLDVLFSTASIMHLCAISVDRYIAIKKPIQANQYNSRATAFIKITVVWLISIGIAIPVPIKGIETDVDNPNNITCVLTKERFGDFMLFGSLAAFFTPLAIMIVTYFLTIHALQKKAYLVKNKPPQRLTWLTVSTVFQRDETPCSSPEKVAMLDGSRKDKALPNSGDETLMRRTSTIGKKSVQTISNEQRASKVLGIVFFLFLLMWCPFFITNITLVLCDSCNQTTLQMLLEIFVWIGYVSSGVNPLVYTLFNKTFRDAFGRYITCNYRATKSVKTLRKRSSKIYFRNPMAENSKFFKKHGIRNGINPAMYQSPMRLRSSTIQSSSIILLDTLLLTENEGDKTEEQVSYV
Sequence of 5-hydroxytryptamine receptor 2A (Rattus norvegicus, UniProt P14842) (P14842 whole entry): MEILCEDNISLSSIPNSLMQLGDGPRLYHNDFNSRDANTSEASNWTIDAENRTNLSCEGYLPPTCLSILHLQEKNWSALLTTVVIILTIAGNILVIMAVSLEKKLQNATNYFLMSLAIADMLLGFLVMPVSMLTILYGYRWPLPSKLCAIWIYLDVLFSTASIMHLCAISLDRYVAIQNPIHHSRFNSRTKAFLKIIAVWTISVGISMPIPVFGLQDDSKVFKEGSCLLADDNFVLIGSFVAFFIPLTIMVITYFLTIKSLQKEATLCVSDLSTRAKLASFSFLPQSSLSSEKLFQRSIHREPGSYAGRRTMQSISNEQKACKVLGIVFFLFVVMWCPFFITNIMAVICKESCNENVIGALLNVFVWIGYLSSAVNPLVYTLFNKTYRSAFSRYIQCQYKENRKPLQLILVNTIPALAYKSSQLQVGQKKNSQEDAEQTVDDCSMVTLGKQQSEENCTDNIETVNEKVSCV

Work on CN1[C@@H]2CC[C@H]1C[C@@H](OC(=O)C(CO)c1ccccc1)C2 (stereo partly drawn) yielded a K 0.5 [1] of 0.7 nM, a K 0.5 [2] of 0.6 nM and a K 0.5 [3] of 0.6 nM. It also gave a K 0.5 [4] of 1.8 nM and a K 0.5 [5] of 0.5 nM.

Molecule COc1ccc2c3c1C[C@H](N)C[C@@H]3CO2 has a K 0.5 [1] of 236 nM, a K 0.5 [2] of 149 nM and a K 0.5 [3] of 129 nM. For the same molecule, the K 0.5 [4] was 33400 nM and the K 0.5 [5] was 240 nM.

In the case of COc1cc(Br)c2c3c1C[C@H](N)C[C@@H]3CO2, the pKi [6] was 8.22, the ED50 (Rattus norvegicus [7]) was “inactive” and the SDL (Rattus norvegicus [8]) was 0%. It also gave a pKi [9] of 6.62, a pKi [10] of 6.58 and a K 0.5 [1] of 33 nM. For the same molecule, the SDL (Rattus norvegicus [11]) was 10%, the D (Rattus norvegicus [12]) was 0% and the SDL (Rattus norvegicus [13]) was 0%. For the same molecule, the ED50 (Rattus norvegicus [14]) was “inactive”, the K 0.5 [2] was 20 nM and the pKi [15] was 6.59. It also gave a K 0.5 [3] of 12 nM, an SDL (Rattus norvegicus [16]) of 44% and a pKi [17] of 5.98. For the same molecule, the D (Rattus norvegicus [18]) was 0%, the D (Rattus norvegicus [19]) was 15% and the D (Rattus norvegicus [20]) was 0%. It also gave a K 0.5 [4] of 41 nM, a pKi [21] of 7.89 and a K 0.5 [5] of 30 nM. It also gave a pKi [22] of 7.05, an SDL (Rattus norvegicus [23]) of 33% and a D (Rattus norvegicus [24]) of 0%.

With CCN(CC)C(=O)[C@@H]1C=C2c3cccc4[nH]cc(c34)C[C@H]2N(C)C1 [LYSERGIDE] the D (Rattus norvegicus [25]) was 0%, the D (Rattus norvegicus [26]) was 0% and the D (Rattus norvegicus [27]) was 0%. It also gave an SDL (Rattus norvegicus [28]) of 81%, a D (Rattus norvegicus [29]) of 7% and an SDL (Rattus norvegicus [30]) of 62%. For the same molecule, the SDL (Rattus norvegicus [31]) was 31%, the ED50 (Rattus norvegicus [32]) was 0.037 µmol/kg and 0.016 mg/kg and the SDL (Rattus norvegicus [33]) was 100%.
